These results are taken from PubChem BioAssay AID330 (DTP/NCI, 2004).

This test has as its system P388 leukemia ip, CD2F1 mice, survival T/C. In words: NCI In Vivo Anticancer Drug Screen. Data for tumor model P388 Leukemia (intraperitoneal) in CD2F1 (CDF1) mice. The following applies: endpoint: median survival time, higher = longer survival. In a few lines: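 Mice carrying the transplanted tumor received test compound or vehicle. Survival was recorded in each group, and the value is the treated-group measurement divided by that of the vehicle-treated control group.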

Where [1] appears, read: dose: 50.0 mg/kg/injection, schedule: Q01DX005 (ip), vehicle: saline with Tween-80.
[2] abbreviates: dose: 100.0 mg/kg/injection, schedule: Q01DX005 (ip), vehicle: saline with Tween-80.

Where “and” joins values, the source holds several entries; their conditions need not be identical. Equal values may be shown once. Inconclusive results and toxic doses are left out.

`COc1cccc2c1C(=O)c1c(O)c3c(c(O)c1C2=O)C[C@@](O)(/C(C)=N/NC(=O)c1ccccc1)C[C@@H]3OC1CC(N)C(O)C(C)O1` (some centres not stated): the T/C by setting is: (dose: 0.12 mg/kg/injection, schedule: Q01DX009 (ip), vehicle: water) 99 % of control and 104 % of control and 89 % of control; (dose: 0.5 mg/kg/injection, schedule: Q01DX005 (ip), vehicle: suspension in saline) 120 % of control; (dose: 0.5 mg/kg/injection, schedule: Q01DX005 (iv), vehicle: suspension in saline) 109 % of control; (dose: 0.65 mg/kg/injection, schedule: Q01DX009 (ip), vehicle: saline) 168 % of control; (dose: 1.0 mg/kg/injection, schedule: Q01DX005 (iv), vehicle: suspension in saline) 110 % of control; (dose: 1.0 mg/kg/injection, schedule: Q01DX009 (ip), vehicle: other) 150 % of control. Also, the T/C runs as follows: (dose: 1.08 mg/kg/injection, schedule: Q01DX009 (ip), vehicle: saline) 172 % of control; (dose: 1.56 mg/kg/injection, schedule: Q04DX003 (ip), vehicle: saline) 177 % of control; (dose: 1.8 mg/kg/injection, schedule: Q01DX009 (ip), vehicle: saline) 190 % of control; (dose: 2.0 mg/kg/injection, schedule: Q01DX005 (iv), vehicle: suspension in saline) 108 % of control; (dose: 2.0 mg/kg/injection, schedule: Q01DX009 (ip), vehicle: other) 166 % of control; (dose: 2.0 mg/kg/injection, schedule: Q04DX003 (ip), vehicle: water) 160 % of control. For the same compound, the T/C reads like this: (dose: 3.0 mg/kg/injection, schedule: Q01DX009 (ip), vehicle: saline) 213 % of control; (dose: 3.0 mg/kg/injection, schedule: Q04DX003 (ip), vehicle: saline) 150 % of control; (dose: 3.0 mg/kg/injection, schedule: Q04DX003 (ip), vehicle: water) 115 % of control; (dose: 3.13 mg/kg/injection, schedule: Q04DX003 (ip), vehicle: saline) 176 % of control; (dose: 3.2 mg/kg/injection, schedule: Q01DX001 (ip), vehicle: water) 153 % of control; (dose: 3.24 mg/kg/injection, schedule: Q04DX003 (ip), vehicle: water) 153 % of control. Further, the T/C reads like this: (dose: 4.0 mg/kg/injection, schedule: Q01DX005 (ip), vehicle: saline) 181 % of control; (dose: 4.0 mg/kg/injection, schedule: Q01DX005 (iv), vehicle: saline) 104 % of control; (dose: 4.0 mg/kg/injection, schedule: Q01DX009 (ip), vehicle: other) 175 % of control; (dose: 4.2 mg/kg/injection, schedule: Q01DX001 (ip), vehicle: water) 158 % of control; (dose: 5.0 mg/kg/injection, schedule: Q01DX001 (ip), vehicle: saline) 168 % of control; (dose: 5.0 mg/kg/injection, schedule: Q04DX003 (ip), vehicle: saline) 163 % of control. The T/C (dose: 5.3 mg/kg/injection, schedule: Q01DX009 (ip), vehicle: saline) is 157 % of control; the T/C (dose: 5.4 mg/kg/injection, schedule: Q04DX003 (ip), vehicle: water) is 171 % of control; the T/C (dose: 5.6 mg/kg/injection, schedule: Q01DX001 (ip), vehicle: water) is 165 % of control; the T/C (dose: 6.25 mg/kg/injection, schedule: Q04DX003 (ip), vehicle: saline) is 205 % of control; the T/C (dose: 7.5 mg/kg/injection, schedule: Q01DX001 (ip), vehicle: water) is 177 % of control; the T/C (dose: 8.0 mg/kg/injection, schedule: Q01DX001 (ip), vehicle: saline) is 163 % of control. In addition, the T/C runs as follows: (dose: 8.0 mg/kg/injection, schedule: Q01DX005 (ip), vehicle: saline) 229 % of control; (dose: 8.0 mg/kg/injection, schedule: Q01DX005 (ip), vehicle: suspension in saline) 174 % of control; (dose: 8.0 mg/kg/injection, schedule: Q01DX005 (iv), vehicle: suspension in saline) 151 % of control; (dose: 8.0 mg/kg/injection, schedule: Q01DX009 (ip), vehicle: other) 189 % of control; (dose: 8.0 mg/kg/injection, schedule: Q01DX009 (ip), vehicle: saline) 90 % of control; (dose: 8.0 mg/kg/injection, schedule: Q04DX003 (ip), vehicle: saline) 163 % of control. For the same compound, the T/C runs as follows: (dose: 8.0 mg/kg/injection, schedule: Q04DX003 (ip), vehicle: water) 116 % of control and 190 % of control and 215 % of control; (dose: 8.3 mg/kg/injection, schedule: Q01DX009 (ip), vehicle: saline) 90 % of control; (dose: 9.0 mg/kg/injection, schedule: Q04DX003 (ip), vehicle: water) 175 % of control; (dose: 10.0 mg/kg/injection, schedule: Q01DX001 (ip), vehicle: clinical formulation) 160 % of control; (dose: 10.0 mg/kg/injection, schedule: Q01DX001 (ip), vehicle: water) 181 % of control; (dose: 12.0 mg/kg/injection, schedule: Q01DX001 (ip), vehicle: clinical formulation) 164 % of control. The T/C (dose: 12.5 mg/kg/injection, schedule: Q04DX003 (ip), vehicle: saline) is 187 % of control; the T/C (dose: 13.3 mg/kg/injection, schedule: Q01DX001 (ip), vehicle: saline) is 113 % of control; the T/C (dose: 13.3 mg/kg/injection, schedule: Q04DX003 (ip), vehicle: saline) was 109 % of control; the T/C (dose: 14.0 mg/kg/injection, schedule: Q01DX001 (ip), vehicle: clinical formulation) was 167 % of control; the T/C (dose: 16.0 mg/kg/injection, schedule: Q01DX001 (ip), vehicle: clinical formulation) was 188 % of control; the T/C (dose: 16.0 mg/kg/injection, schedule: Q01DX005 (iv), vehicle: saline) was 211 % of control. Besides, the T/C is, setting by setting: (dose: 16.0 mg/kg/injection, schedule: Q04DX003 (ip), vehicle: water) 180 % of control and 318 % of control; (dose: 18.0 mg/kg/injection, schedule: Q01DX001 (ip), vehicle: clinical formulation) 179 % of control; (dose: 22.2 mg/kg/injection, schedule: Q01DX001 (ip), vehicle: saline) 95 % of control; (dose: 24.0 mg/kg/injection, schedule: Q04DX003 (ip), vehicle: water) 171 % of control; (dose: 32.0 mg/kg/injection, schedule: Q04DX003 (ip), vehicle: water) 163 % of control and 233 % of control; (dose: 48.0 mg/kg/injection, schedule: Q04DX003 (ip), vehicle: water) 117 % of control. In addition, the T/C reads like this: (dose: 64.0 mg/kg/injection, schedule: Q04DX003 (ip), vehicle: water) 109 % of control and 114 % of control; (dose: 96.0 mg/kg/injection, schedule: Q04DX003 (ip), vehicle: water) 89 % of control.

With `O=C1C=CC(O)C2C1CC13SSC4(CC5C(=O)C=CC(O)C5N4C1=O)C(=O)N23` (configuration not stated), the T/C by setting is: (dose: 4.0 mg/kg/injection, schedule: Q01DX009 (ip), vehicle: Klucel (hydroxypropylcellulose) (HPC)) 107 % of control; (dose: 8.0 mg/kg/injection, schedule: Q01DX009 (ip), vehicle: Klucel (hydroxypropylcellulose) (HPC)) 102 % of control.

Turning to `CCCCN(CCCC)C1CCC(Nc2ccnc3cc(Cl)ccc23)CC1` (configuration not stated), the T/C runs as follows: (dose: 50.0 mg/kg/injection, schedule: Q01DX005 (ip), vehicle: Klucel (hydroxypropylcellulose) (HPC)) 98 % of control; (dose: 100.0 mg/kg/injection, schedule: Q01DX005 (ip), vehicle: Klucel (hydroxypropylcellulose) (HPC)) 95 % of control.

Take `Cc1nn(C(=S)S)c(C)c1N=Nc1ccccc1Cl`: the T/C runs as follows: under setting [1], 111 % of control; under setting [2], 117 % of control; (dose: 200.0 mg/kg/injection, schedule: Q01DX005 (ip), vehicle: saline with Tween-80) 108 % of control.

Take `CC1(C)OCC(C2OC(C)(C)OC2C2COC(C)(C)O2)O1` (configuration not stated): the T/C is, setting by setting: (dose: 12.5 mg/kg/injection, schedule: Q01DX009 (ip), vehicle: Klucel (hydroxypropylcellulose) (HPC)) 105 % of control; (dose: 25.0 mg/kg/injection, schedule: Q01DX009 (ip), vehicle: Klucel (hydroxypropylcellulose) (HPC)) 106 % of control; (dose: 50.0 mg/kg/injection, schedule: Q01DX009 (ip), vehicle: Klucel (hydroxypropylcellulose) (HPC)) 108 % of control; (dose: 100.0 mg/kg/injection, schedule: Q01DX009 (ip), vehicle: Klucel (hydroxypropylcellulose) (HPC)) 100 % of control.

For `CC1=CC(C)=Nc2ccccc2N1`, the T/C (dose: 50.0 mg/kg/injection, schedule: Q01DX009 (ip), vehicle: saline) is 103 % of control; the T/C (dose: 100.0 mg/kg/injection, schedule: Q01DX009 (ip), vehicle: saline) was 99 % of control and 101 % of control; the T/C (dose: 200.0 mg/kg/injection, schedule: Q01DX009 (ip), vehicle: saline) was 94 % of control.

Regarding `CC(C)(C)N=S=Nc1c(F)c(F)c(F)c(F)c1F`, the T/C is 110 % of control under setting [1] and 106 % of control under setting [2].
